From patent publication US11590154B2, “Triple antibiotic fixed-dose combination products, dosing regimen, methods, and kits for treating pulmonary non-tuberculosis mycobacterial infections” (priority 2020, dated 2023)
Entries after “also recorded” stand apart in the source; their conditions may differ.

Key:
M. avium = assay: MIC of antibiotics by broth microdilution, M. avium strains of Examples 3 and 4; assay type: cell-based, Mycobacterium avium subsp. hominissuis; details: for minimum inhibitory concentrations (MICs) used for antibiotic plates: 7H10 agar plates for tissue CFU counts
Method: Susceptibility testing was conducted using broth microdilution single and twofold dilutions as described in the literature. Suspensions were prepared by swabs on a growth plate with a sterile cotton swab, or were prepared in broth culture. The growth was transferred to a 4.5 mL of phosphate buffer solution (PBS) until the turbidity matched the density of a 0.5 McFarland standard. Suspensions were then vigorously mixed on a vortex mixer for 15 to 20 seconds. The final inoculum was prepared to a bacterial density of 10^5. The tube was inverted 8-10 times to mix the suspension.
(§1) Following both the four-week and eight-week treatment period, mice were sacrificed, and lungs and spleens were harvested for CFU counts in each tissue and compared to CFUs recovered in the baseline and vehicle-treated groups. Tissue samples were plated with and without antibiotic on 7H10 agar. Antibiotic plates were made with minimum inhibitory concentrations (MICs) of 8 μg/ml for clarithromycin, and 0.25, μg/ml for both rifabutin (RFB) and clofazimine (CFZ). Plates were made for each of clarithromycin (CLR) alone, clarithromycin plus either rifabutin (CLR+RFB) or clofazimine (CLR+CFZ) and the three-drug combination (CLR+RFB+CFZ). All plates were incubated in a microbiological incubator at 37° C. for 14 days.

M. avium 104 biofilm = assay: In vitro biofilm model of infection; assay type: cell-based, Mycobacterium avium subsp. hominissuis; details: mean ± SD; CLR 1.9-4.3 μg/mL, RFB 0.04 μg/mL, CFZ 0.0005 μg/mL
MAC [1] = assay: MIC of the MAC strains used in the HFS-MAC studies; assay type: cell-based, Mycobacterium avium complex; details: Mycobacterium avium
Method: The MAC strain used in the HFS-MAC studies was ATCC strain 700898. The study center also had 5 well-characterized clinical strains that have undergone whole-genome sequencing and habituation to the HFS-MAC. Stock cultures of MAC were stored at −80° C. in Middlebrook 7H9 broth with 10% OADC and 10% glycerol. THP-1 monocytes were stored in liquid nitrogen and have been habituated for the HFS-MAC growth conditions.

[2] = 7-day mouse tolerability and PK study; details: for Cavg (rifabutin) / Cavg (clarithromycin): AUCtlast/24 h; for Tmax / AUC(0-t) / Cmax: female, C57BL/6, mouse, po
Method: Sixty (60) female mice were tested, 12 per treatment groups: […]

NTM = details: mouse models of systemic and lung infection; preclinical literature; cited from earlier work
[3] = test system: intracellular MAC in THP-1 monocytes; assay: Hollow fiber system model of MAC (HFS-MAC): microbial kill; assay type: cell-based, Mycobacterium avium complex; details: HF experiments
Method: The anti-mycobacterial effects of CLR, CFZ, and RFB was evaluated in the hollow fiber system model of MAC (HFS-MAC), which recapitulates the intrapulmonary concentrations of these antibiotics. The HFS-MAC allows for an assessment of the contribution of individual drug components in terms of anti-mycobacterial effects and enables exploration of potential synergy, additivity, or antagonism of different doses of drugs and combination regimens on the log-phase growth of intracellular MAC, for both microbial kill and resistance suppression.
A two-part investigation was conducted to assess the contribution of components of various FDC products comprising CLR, CFZ, and RFB in terms of depth and rate of MAC kill and suppression of the emergence of resistance. The anti-MAC activity of each antibiotic component was evaluated as one-drug alone; as two-drug combinations and the three-drug combination. For each combination (singlet, doublet or triplet), the drug concentrations were sampled from the HF fluid bathing MAC-infected cells. […] Anti-MAC activity was evaluated by kill slopes defined as the kill rate constant (and the half-life of kill [reciprocal of the kill rate constant]) as well as the maximum kill, defined as the maximum reduction in MAC CFUs and compared between the different antibiotic combinations.
MAC was grown into log-phase for 4 days, parallel with cultivation of THP-1 monocytes. The THP-1 cells were then infected with MAC overnight at a multiplicity of infection of 1:1. The THP-1 cells were washed to remove extracellular bacteria, and 20 mL of 1×10^6 (6.0 log10) cells/mL were inoculated into each HFS-MAC on Study Day 0. The peripheral compartment is the abluminal hollow fibers space that is also enclosed by the plastic, while the intraluminal space and flow path form the central compartment. […]

MAC bacteria = assay type: cell-based, Mycobacterium avium complex; details: 2×MIC; starting inoculum 5.5 log10 CFU/ml
Method: In vitro, efficacy was studied in static time-kill kinetics assays (at 2×minimum inhibitory concentration [MIC]), intended to mirror a desired peak serum concentration for all three antibiotics using an established assay. All experiments were performed with a starting inoculum of 5.5 log10 CFU/ml MAC bacteria, higher than the bacterial load expected in the airway secretions of patients with mild nodular-bronchiectatic disease due to MAC.

MAC [4] = assay: Lung histopathology of mice infected with MAC and treated for four and eight weeks; assay type: in vivo, Mycobacterium avium complex; details: 32 sections per group
Excerpt: Lung and Spleen Histopathology of Mice Infected with MAC and Treated with FDC Components Alone and in Combination for Four and Eight Weeks of Treatment
Each of the experimental group had eight cut examined from each lung (8×2 lungs=16×2 mice=32 sections). Lungs were normal and not showing any pathology at pre-infection.

[5] = epithelial lining fluid to total plasma/serum; cited from earlier work
M. avium strain 104 = assay: Mouse lung infection model, clarithromycin sensitive strain; assay type: in vivo, Mycobacterium avium subsp. hominissuis; details: for reduction in CFU relative to vehicle: 50 mg/kg
Method: as §1

[6] = ATCC700898, MAC (ATCC 700898), laboratory strain

SMILES: CO[C@H]1/C=C/O[C@@]2(C)Oc3c(C)c(O)c4c(c3C2=O)C2=NC3(CCN(CC(C)C)CC3)NC2=C(NC(=O)/C(C)=C\C=C\[C@H](C)[C@H](O)[C@@H](C)[C@@H](O)[C@@H](C)[C@H](OC(C)=O)[C@@H]1C)C4=O [Rifabutin, rifabutin]
- minimum inhibitory concentrations (MICs) used for antibiotic plates (M. avium): 0.25 µg/mL
- Colony Forming Unit Concentration, Four Days (M. avium 104 biofilm): 1.41 ± 0.5 × 10^7 CFU/mL
- Colony Forming Unit Concentration, Seven Days (M. avium 104 biofilm): 1.64 ± 0.3 × 10^7 CFU/mL
- MIC (MAC [1]; [6]): 0.0625 µg/mL
- MIC (MAC [1]; Clinical strain #1): 0.125 µg/mL
- MIC (MAC [1]; Clinical strain #2): 0.125 µg/mL
- MIC (MAC [1]; Clinical strain #3): 0.125 µg/mL
- MIC (MAC [1]; Clinical strain #4): 2 µg/mL
- MIC (MAC [1]; Clinical strain #5): 0.125 µg/mL
- Cavg (rifabutin) ([2]; Day 7, RFB 20 mg/kg alone): 1,117 ng/mL
- Cavg (rifabutin) ([2]; Day 7, RFB 60 mg/kg alone): 2,558 ng/mL
- Cavg (rifabutin) ([2]; Day 7, RFB 60 mg/kg with CLR 200 mg/kg and CFZ 30 mg/kg): 4,541 ng/mL
- Tmax ([2]; in vivo, 20 mg/kg): 1 h
- AUC(0-t) ([2]; in vivo, 20 mg/kg, AUCtlast (rifabutin), Day 1, RFB 20 mg/kg alone, oral, mouse plasma): 22100 ng·h/mL
- AUC(0-t) ([2]; in vivo, 20 mg/kg, AUCtlast (rifabutin), Day 7, RFB 20 mg/kg alone, oral once daily, mouse plasma): 26800 ng·h/mL
- Cmax ([2]; in vivo, 20 mg/kg, Cmax (rifabutin), Day 1, RFB 20 mg/kg alone, oral, mouse plasma): 2310 ng/mL
- Cmax ([2]; in vivo, 20 mg/kg, Cmax (rifabutin), Day 7, RFB 20 mg/kg alone, oral once daily, mouse plasma): 3140 ng/mL
- Tmax ([2]; in vivo, 60 mg/kg): 1 h
- AUC(0-t) ([2]; in vivo, 60 mg/kg, AUCtlast (rifabutin), Day 1, RFB 60 mg/kg alone, oral, mouse plasma): 60200 ng·h/mL
- AUC(0-t) ([2]; in vivo, 60 mg/kg, AUCtlast (rifabutin), Day 1, RFB 60 mg/kg with CLR 200 mg/kg and CFZ 30 mg/kg, oral, mouse plasma): 60400 ng·h/mL
- AUC(0-t) ([2]; in vivo, 60 mg/kg, AUCtlast (rifabutin), Day 7, RFB 60 mg/kg alone, oral once daily, mouse plasma): 61400 ng·h/mL
- AUC(0-t) ([2]; in vivo, 60 mg/kg, AUCtlast (rifabutin), Day 7, RFB 60 mg/kg with CLR 200 mg/kg and CFZ 30 mg/kg, oral once daily, mouse plasma): 109000 ng·h/mL
- Cmax ([2]; in vivo, 60 mg/kg, Cmax (rifabutin), Day 1, RFB 60 mg/kg alone, oral, mouse plasma): 5650 ng/mL
- Cmax ([2]; in vivo, 60 mg/kg, Cmax (rifabutin), Day 1, RFB 60 mg/kg with CLR 200 mg/kg and CFZ 30 mg/kg, oral, mouse plasma): 5300 ng/mL
- Cmax ([2]; in vivo, 60 mg/kg, Cmax (rifabutin), Day 7, RFB 60 mg/kg alone, oral once daily, mouse plasma): 5760 ng/mL
- Cmax ([2]; in vivo, 60 mg/kg, Cmax (rifabutin), Day 7, RFB 60 mg/kg with CLR 200 mg/kg and CFZ 30 mg/kg, oral once daily, mouse plasma): 5720 ng/mL
- Effective Dose (NTM): 10 mg/kg/day
- effect on CFUs / MAC killing, summary [3]: CFU counts increased
- activity as single drugs (MAC bacteria): bacteriostatic activity
- Lung Histopathology Findings (MAC [4]): Diffuse congestion; also recorded: Infiltrates of lymphocytes are also observed in multiple locations

SMILES: CC[C@H]1OC(=O)[C@H](C)[C@@H](O[C@H]2C[C@@](C)(OC)[C@@H](O)[C@H](C)O2)[C@H](C)[C@@H](O[C@@H]2O[C@H](C)C[C@H](N(C)C)[C@H]2O)[C@](C)(OC)C[C@@H](C)C(=O)[C@H](C)[C@@H](O)[C@]1(C)O [Clarithromycin, clarithromycin]
- ELF:plasma ratio [5]: 3.4-7.8
- minimum inhibitory concentrations (MICs) used for antibiotic plates (M. avium): 8 µg/mL
- MIC (M. avium; Mycobacterium avium, clarithromycin resistant sub-subpopulation, 23 S RNA gene mutation): > 128 µg/mL
- Colony Forming Unit Concentration, Four Days (M. avium 104 biofilm): 1.35 ± 0.3 × 10^7 CFU/mL
- Colony Forming Unit Concentration, Seven Days (M. avium 104 biofilm): 1.07 ± 0.3 × 10^7 CFU/mL
- MIC (MAC [1]; [6]): 0.25 µg/mL
- MIC (MAC [1]; Clinical strain #1): 0.125 µg/mL
- MIC (MAC [1]; Clinical strain #2): 0.5 µg/mL
- MIC (MAC [1]; Clinical strain #3): 32 µg/mL
- MIC (MAC [1]; Clinical strain #4): 0.25 µg/mL
- MIC (MAC [1]; Clinical strain #5): 0.125 µg/mL
- Cavg (clarithromycin) ([2]; Day 7, CLR 100 mg/kg alone): 729 ng/mL
- Cavg (clarithromycin) ([2]; Day 7, CLR 200 mg/kg alone): 1,425 ng/mL
- Cavg (clarithromycin) ([2]; Day 7, CLR 200 mg/kg with RFB 60 mg/kg and CFZ 30 mg/kg): 2,704 ng/mL
- AUC(0-t) ([2]; plasma, 100 mg/kg, AUCtlast (clarithromycin), Day 1, CLR 100 mg/kg alone, oral, mouse plasma): 11100 ng·h/mL
- AUC(0-t) ([2]; plasma, 100 mg/kg, AUCtlast (clarithromycin), Day 7, CLR 100 mg/kg alone, oral once daily, mouse plasma): 17500 ng·h/mL
- Cmax ([2]; plasma, 100 mg/kg, Cmax (clarithromycin), Day 1, CLR 100 mg/kg alone, oral, mouse plasma): 3400 ng/mL
- Cmax ([2]; plasma, 100 mg/kg, Cmax (clarithromycin), Day 7, CLR 100 mg/kg alone, oral once daily, mouse plasma): 6130 ng/mL
- Tmax ([2]; plasma, 100 mg/kg, tmax (clarithromycin), Day 1, CLR 100 mg/kg alone, oral, mouse plasma): 1 h
- Tmax ([2]; plasma, 100 mg/kg, tmax (clarithromycin), Day 7, CLR 100 mg/kg alone, oral once daily, mouse plasma): 1 h
- AUC(0-t) ([2]; plasma, 200 mg/kg, AUCtlast (clarithromycin), Day 1, CLR 200 mg/kg alone, oral, mouse plasma): 36200 ng·h/mL
- AUC(0-t) ([2]; plasma, 200 mg/kg, AUCtlast (clarithromycin), Day 1, CLR 200 mg/kg with RFB 60 mg/kg and CFZ 30 mg/kg, oral, mouse plasma): 44200 ng·h/mL
- AUC(0-t) ([2]; plasma, 200 mg/kg, AUCtlast (clarithromycin), Day 7, CLR 200 mg/kg alone, oral once daily, mouse plasma): 34200 ng·h/mL
- AUC(0-t) ([2]; plasma, 200 mg/kg, AUCtlast (clarithromycin), Day 7, CLR 200 mg/kg with RFB 60 mg/kg and CFZ 30 mg/kg, oral once daily, mouse plasma): 64900 ng·h/mL
- Cmax ([2]; plasma, 200 mg/kg, Cmax (clarithromycin), Day 1, CLR 200 mg/kg alone, oral, mouse plasma): 9110 ng/mL
- Cmax ([2]; plasma, 200 mg/kg, Cmax (clarithromycin), Day 1, CLR 200 mg/kg with RFB 60 mg/kg and CFZ 30 mg/kg, oral, mouse plasma): 8370 ng/mL
- Cmax ([2]; plasma, 200 mg/kg, Cmax (clarithromycin), Day 7, CLR 200 mg/kg alone, oral once daily, mouse plasma): 7430 ng/mL
- Cmax ([2]; plasma, 200 mg/kg, Cmax (clarithromycin), Day 7, CLR 200 mg/kg with RFB 60 mg/kg and CFZ 30 mg/kg, oral once daily, mouse plasma): 10100 ng/mL
- Tmax ([2]; plasma, 200 mg/kg, tmax (clarithromycin), Day 1, CLR 200 mg/kg alone, oral, mouse plasma): 1 h
- Tmax ([2]; plasma, 200 mg/kg, tmax (clarithromycin), Day 1, CLR 200 mg/kg with RFB 60 mg/kg and CFZ 30 mg/kg, oral, mouse plasma): 1 h
- Tmax ([2]; plasma, 200 mg/kg, tmax (clarithromycin), Day 7, CLR 200 mg/kg alone, oral once daily, mouse plasma): 1 h
- Tmax ([2]; plasma, 200 mg/kg, tmax (clarithromycin), Day 7, CLR 200 mg/kg with RFB 60 mg/kg and CFZ 30 mg/kg, oral once daily, mouse plasma): 1 h
- Effective Dose (NTM): 50 to 100 mg/kg/day
- effect on CFUs / MAC killing, summary [3]: reductions in colony forming units
- activity as single drugs (MAC bacteria): bacteriostatic activity
- reduction in CFU relative to vehicle (M. avium strain 104; after eight weeks of treatment): ~2 log unit
- reduction in CFU relative to vehicle (M. avium strain 104; after four weeks of treatment): approximately 1 log unit
- CFUs resistant to clarithromycin in one animal (M. avium strain 104; clarithromycin monotherapy treatment): 200 CFUs
- Lung Histopathology Findings (MAC [4]): Diffuse congestion; bacteria in granulomas

SMILES: CO[C@H]1/C=C/O[C@@]2(C)Oc3c(C)c(O)c4c(O)c(c(/C=N/N5CCN(C)CC5)c(O)c4c3C2=O)NC(=O)/C(C)=C\C=C\[C@H](C)[C@H](O)[C@@H](C)[C@@H](O)[C@@H](C)[C@H](OC(C)=O)[C@@H]1C [rifampin]
- ELF:plasma ratio [5]: approximately 0.34
